This is an account of results in patent US11739098B2 (BRISTOL-MYERS SQUIBB COMPANY, priority 2017, dated 2023).

pIC50: −log10 of the molar value.

Common to all, as to format: cell-based
The target in assay [1] is T1, human TLR7 (Homo sapiens, UniProt Q9NYK1).
T1 construct: host or cells: HEK-Blue cells (HEK293-derived reporter line)
T1 sequence (Q9NYK1 27-1049): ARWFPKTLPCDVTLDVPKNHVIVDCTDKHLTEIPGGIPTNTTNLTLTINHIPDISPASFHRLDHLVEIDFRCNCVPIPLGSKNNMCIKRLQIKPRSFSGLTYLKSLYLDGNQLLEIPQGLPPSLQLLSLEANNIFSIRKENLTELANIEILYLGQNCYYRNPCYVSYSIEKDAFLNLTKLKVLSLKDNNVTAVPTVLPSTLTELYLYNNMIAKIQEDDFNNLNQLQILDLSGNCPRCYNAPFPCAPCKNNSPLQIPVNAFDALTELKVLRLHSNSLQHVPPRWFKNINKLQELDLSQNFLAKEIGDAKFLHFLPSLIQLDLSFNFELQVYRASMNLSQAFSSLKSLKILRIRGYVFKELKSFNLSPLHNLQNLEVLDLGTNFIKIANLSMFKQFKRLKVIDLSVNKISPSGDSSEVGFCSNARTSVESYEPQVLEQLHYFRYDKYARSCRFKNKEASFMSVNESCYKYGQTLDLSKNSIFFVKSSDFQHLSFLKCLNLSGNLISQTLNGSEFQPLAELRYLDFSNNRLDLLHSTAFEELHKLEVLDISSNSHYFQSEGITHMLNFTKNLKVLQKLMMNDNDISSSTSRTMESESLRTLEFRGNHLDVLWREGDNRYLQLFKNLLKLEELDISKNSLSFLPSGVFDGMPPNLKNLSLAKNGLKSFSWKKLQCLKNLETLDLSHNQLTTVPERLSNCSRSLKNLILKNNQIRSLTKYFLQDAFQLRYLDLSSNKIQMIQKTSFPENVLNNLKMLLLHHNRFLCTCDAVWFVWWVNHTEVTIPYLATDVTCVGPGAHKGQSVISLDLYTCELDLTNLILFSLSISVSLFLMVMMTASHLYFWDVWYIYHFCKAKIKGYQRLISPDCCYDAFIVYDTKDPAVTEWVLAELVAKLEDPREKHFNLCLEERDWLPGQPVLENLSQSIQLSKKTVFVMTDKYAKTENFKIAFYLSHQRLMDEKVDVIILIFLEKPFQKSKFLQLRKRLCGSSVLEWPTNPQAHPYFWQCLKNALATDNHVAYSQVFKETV
As to the kind of experiment: TLR7 inhibition reporter assay (HEK-Blue cells, SEAP reporter, gardiquimod stimulation). The note with it: HEK-Blue cells overexpressing human TLR7, SEAP reporter, gardiquimod 7.5 μM. In outline:
(§1)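 Cells seeded per well (15000 TLR7, 20,000 TLR8, 25,000 TLR9); compound added over 0.05 nM–50 μM for 30 min at room temperature; agonist added (TLR7 gardiquimod 7.5 μM, TLR8 R848 15.9 μM, TLR9 ODN2006 5 nM); 22 h at 37 °C; SEAP measured; percent inhibition calculated.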
Background: In a reporter assay the amount or activity of a reporter protein is the signal.

Assay [2] addresses T2, human TLR8 (Homo sapiens, UniProt Q9NR97).
T2 construct: host or cells: HEK-Blue cells (HEK293-derived reporter line)
T2 sequence (Q9NR97 27-1041): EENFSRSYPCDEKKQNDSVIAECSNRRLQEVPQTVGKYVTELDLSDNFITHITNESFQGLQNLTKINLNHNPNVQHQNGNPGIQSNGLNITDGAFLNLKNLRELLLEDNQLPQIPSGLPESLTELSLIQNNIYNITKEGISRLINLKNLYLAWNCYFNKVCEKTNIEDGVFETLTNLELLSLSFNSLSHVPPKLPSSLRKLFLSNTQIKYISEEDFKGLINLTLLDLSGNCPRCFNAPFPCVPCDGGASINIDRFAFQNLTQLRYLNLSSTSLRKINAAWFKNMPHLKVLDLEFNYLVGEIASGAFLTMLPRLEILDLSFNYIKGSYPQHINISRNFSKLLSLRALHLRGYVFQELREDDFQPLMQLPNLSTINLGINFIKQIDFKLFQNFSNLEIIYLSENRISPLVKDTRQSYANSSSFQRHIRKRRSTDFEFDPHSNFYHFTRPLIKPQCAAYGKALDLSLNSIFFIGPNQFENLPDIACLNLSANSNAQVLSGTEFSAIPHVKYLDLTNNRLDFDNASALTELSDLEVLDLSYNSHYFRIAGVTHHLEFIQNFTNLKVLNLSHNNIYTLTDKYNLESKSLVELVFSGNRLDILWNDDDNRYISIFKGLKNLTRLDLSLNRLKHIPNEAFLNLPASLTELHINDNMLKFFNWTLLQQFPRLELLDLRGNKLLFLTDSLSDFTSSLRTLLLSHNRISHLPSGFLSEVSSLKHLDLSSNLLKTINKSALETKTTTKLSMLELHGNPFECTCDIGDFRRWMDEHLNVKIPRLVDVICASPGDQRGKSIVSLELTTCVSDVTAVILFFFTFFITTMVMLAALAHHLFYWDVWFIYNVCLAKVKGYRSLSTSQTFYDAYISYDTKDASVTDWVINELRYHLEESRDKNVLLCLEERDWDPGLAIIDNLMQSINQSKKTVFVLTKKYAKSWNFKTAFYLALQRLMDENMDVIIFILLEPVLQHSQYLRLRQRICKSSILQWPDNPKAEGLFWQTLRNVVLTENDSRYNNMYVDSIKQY
As to the kind of experiment: TLR8 inhibition reporter assay (HEK-Blue cells, SEAP reporter, R848 stimulation). The following applies: HEK-Blue cells overexpressing human TLR8, SEAP reporter, R848 15.9 μM. The procedure, abridged: as §1

Assay [3] has as its target T3, human TLR9 (Homo sapiens, UniProt Q9NR96).
T3 construct: host or cells: HEK-Blue cells (HEK293-derived reporter line)
T3 sequence (Q9NR96 26-1032): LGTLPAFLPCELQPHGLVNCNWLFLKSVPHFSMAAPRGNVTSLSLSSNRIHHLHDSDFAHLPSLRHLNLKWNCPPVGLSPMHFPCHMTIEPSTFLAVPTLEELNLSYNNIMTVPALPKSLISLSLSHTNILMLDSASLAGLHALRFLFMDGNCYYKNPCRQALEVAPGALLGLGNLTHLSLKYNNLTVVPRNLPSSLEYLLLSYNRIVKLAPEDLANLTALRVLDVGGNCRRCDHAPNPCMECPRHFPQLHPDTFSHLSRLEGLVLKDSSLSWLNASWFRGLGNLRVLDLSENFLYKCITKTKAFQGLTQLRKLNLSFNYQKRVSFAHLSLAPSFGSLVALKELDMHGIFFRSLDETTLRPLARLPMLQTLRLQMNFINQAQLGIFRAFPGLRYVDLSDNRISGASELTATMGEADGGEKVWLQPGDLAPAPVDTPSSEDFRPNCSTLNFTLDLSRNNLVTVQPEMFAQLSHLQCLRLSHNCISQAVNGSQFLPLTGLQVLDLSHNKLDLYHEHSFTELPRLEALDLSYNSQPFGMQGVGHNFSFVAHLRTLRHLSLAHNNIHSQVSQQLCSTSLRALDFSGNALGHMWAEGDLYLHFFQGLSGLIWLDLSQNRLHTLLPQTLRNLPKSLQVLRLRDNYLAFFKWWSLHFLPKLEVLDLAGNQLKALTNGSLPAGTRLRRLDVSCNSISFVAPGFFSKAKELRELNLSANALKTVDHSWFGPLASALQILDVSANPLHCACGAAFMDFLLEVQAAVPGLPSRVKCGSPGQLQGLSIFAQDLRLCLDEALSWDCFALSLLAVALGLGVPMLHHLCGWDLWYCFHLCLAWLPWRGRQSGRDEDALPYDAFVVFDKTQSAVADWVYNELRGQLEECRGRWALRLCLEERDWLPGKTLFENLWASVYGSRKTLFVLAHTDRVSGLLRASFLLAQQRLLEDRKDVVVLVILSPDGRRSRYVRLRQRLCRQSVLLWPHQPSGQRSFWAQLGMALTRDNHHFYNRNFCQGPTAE
Nature of the assay: TLR9 inhibition reporter assay (HEK-Blue cells, SEAP reporter, ODN2006 stimulation). The note with it: HEK-Blue cells overexpressing human TLR9, SEAP reporter, ODN2006 5 nM. The procedure, abridged:
as §1

What is called pIC50 is −log10 of the IC50, conventionally taken in molar units. Read a low pIC50 as a high IC50.

As to `CC(C)c1c(-c2ccnc3[nH]ncc23)[nH]c2ccc(C3CCN(C(=O)CN4CCNC(=O)C4)CC3)cc12` [Example 587, 4-(2-(4-(3-isopropyl-2-(1H-pyrazolo[3,4-b]pyridin-4-yl)-1H-indol-5-yl)piperidin-1-yl)-2-oxoethyl) piperazin-2-one], the pIC50 was 6.00 to 7.00 in assay [1], 6.00 to 7.00 in assay [2] and less than 4.30 in assay [3].

As to `CCN(CC)C(=O)C1CCCN(CC(=O)N2CCC(c3ccc4[nH]c(-c5ccnc6[nH]ncc56)c(C(C)C)c4c3)CC2)C1` (stereo not drawn) [Example 588, N,N-diethyl-1-(2-(4-(3-isopropyl-2-(1H-pyrazolo[3,4-b]pyridin-4-yl)-1H-indol-5-yl)piperidin-1-yl)-2-oxoethyl)piperidine-3-carboxamide], the pIC50 is greater than 7.00 in assay [1], greater than 7.00 in assay [2] and 6.00 to 7.00 in assay [3].

As to `CC(C)c1c(-c2ccnc3[nH]ncc23)[nH]c2ccc(C3CCN(C(=O)CNCC(C)(C)C)CC3)cc12` [Example 589, 1-(4-(3-isopropyl-2-(1H-pyrazolo[3,4-b]pyridin-4-yl)-1H-indol-5-yl)piperidin-1-yl)-2-(neopentylamino)ethan-1-one], the pIC50 in assay [1] was greater than 7.00; in assay [2], greater than 7.00; in assay [3], 4.30 to 6.00.

As for `CC(C)c1c(-c2ccnc3[nH]ncc23)[nH]c2ccc(C3CCN(C(=O)CN4CC[C@H](N(C)C)C4)CC3)cc12` [Example 590, (S)-2-(3-(dimethylamino)pyrrolidin-1-yl)-1-(4-(3-isopropyl-2-(1H-pyrazolo [3,4-b]pyridin-4-yl)-1H-indol-5-yl)piperidin-1-yl)ethan-1-one], the pIC50 in assay [1] is greater than 7.00; in assay [2] it was greater than 7.00; in assay [3], 6.00 to 7.00.

`CC(C)c1c(-c2ccnc3[nH]ncc23)[nH]c2ccc(C3CCN(C(=O)CN4CCN(c5ccncc5)CC4)CC3)cc12` [Example 591, 1-(4-(3-isopropyl-2-(1H-pyrazolo[3,4-b]pyridin-4-yl)-1H-indol-5-yl)piperidin-1-yl)-2-(4-(pyridin-4-yl)piperazin-1-yl)ethan-1-one]: the pIC50 in assay [1] is greater than 7.00; in assay [2], greater than 7.00; in assay [3] it was 6.00 to 7.00.

As for `CC(=O)N1CCC(c2ccc3[nH]c(-c4ccnc5[nH]ncc45)c(C(C)C)c3c2)CC1` [Example 592, 1-(4-(3-isopropyl-2-(1H-pyrazolo[3,4-b]pyridin-4-yl)-1H-indol-5-yl)piperidin-1-yl)ethan-1-one], the negative-log IC50 (pIC50) in assay [1] was 6.00 to 7.00; in assay [2] it was 6.00 to 7.00; in assay [3] it was less than 4.30.

As for `Cc1cc(-c2[nH]c3ccc(C4CCN(C(=O)C[C@@H](C)O)CC4)cc3c2C(C)C)cn2nnnc12` [Example 594, (R)-3-hydroxy-1-(4-(3-isopropyl-2-(8-methyltetrazolo[1,5-a]pyridin-6-yl)-1H-indol-5-yl)piperidin-1-yl)butan-1-one], the values for the pIC50 in assay [1], in assay [2] and in assay [3] were greater than 7.00, greater than 7.00 and 4.30 to 6.00, respectively.

Take `CC(C)c1c(-c2cnc3ccnn3c2)[nH]c2ccc(C3CCN(C(=O)C[C@H](C)O)CC3)cc12` [Example 595, (S)-3-hydroxy-1-(4-(3-isopropyl-2-(pyrazolo[1,5-a]pyrimidin-6-yl)-1H-indol-5-yl)piperidin-1-yl)butan-1-one]: the values for the pIC50 in assay [1], in assay [2] and in assay [3] were less than 5.51, less than 5.51 and less than 4.30, respectively.

Consider `Cc1cn2cc(-c3[nH]c4ccc(C5CCN(C(=O)CC(C)O)CC5)cc4c3C(C)C)c(C)cc2n1` (stereo not drawn) [Example 596, 1-(4-(2-(2,7-dimethylimidazo[1,2-a]pyridin-6-yl)-3-isopropyl-1H-indol-5-yl)piperidin-1-yl)-3-hydroxybutan-1-one], for which the pIC50 in assay [1] is greater than 7.00; in assay [2], less than 5.51; in assay [3], 4.30 to 6.00.

Turning to `Cc1cn2cc(-c3[nH]c4ccc(C5CCN(C(=O)CC(C)(C)O)CC5)cc4c3C(C)C)c(C)cc2n1` [Example 597, 1-(4-(2-(2,7-dimethylimidazo[1,2-a]pyridin-6-yl)-3-isopropyl-1H-indol-5-yl)piperidin-1-yl)-3-hydroxy-3-methylbutan-1-one], the pIC50 in assay [1] is 6.00 to 7.00; in assay [2], less than 5.51; in assay [3], 4.30 to 6.00.

As for `Cc1nc2c(-c3[nH]c4ccc(C5CCN(C(=O)C[C@H](C)O)CC5)cc4c3C(C)C)ccc(C)n2n1` [Example 598, (S)-1-(4-(2-(2,5-dimethyl-[1,2,4]triazolo[1,5-a]pyridin-8-yl)-3-isopropyl-1H-indol-5-yl)piperidin-1-yl)-3-hydroxybutan-1-one], the pIC50 in assay [1] was less than 5.51; in assay [2] it was 4.30 to 6.00; in assay [3], less than 4.30.

`Cc1ccc(-c2[nH]c3ccc(C4CCN(C(=O)C[C@H](C)O)CC4)cc3c2C(C)C)c2ncnn12` [Example 599, (S)-3-hydroxy-1-(4-(3-isopropyl-2-(5-methyl-[1,2,4]triazolo[1,5-a]pyridin-8-yl)-1H-indol-5-yl)piperidin-1-yl)butan-1-one]: the figures for the pIC50 in assay [1], in assay [2] and in assay [3] were 6.00 to 7.00, 6.00 to 7.00 and 4.30 to 6.00, respectively.
